Read-outs that look alike come from different tables or passages of the source.
Assays:
[1] = test system: hsa-miR-590-5p (MIMAT0003258); experiment: Micro RNA microarray, change of hsa-miR-590-5p expression; format: cell-based, human; conditions: for Change (Fold) hsa-miR-590-5p: A549, treated at IC20 for 48 hours, microarray, versus control
[2] = test system: A549 cells; experiment: in vitro; format: cell-based, human
Method: (§1) A549 cells (Korean Cell Line Bank), the human lung cancer tissue derived cell line, were cultured in 100 mm dish containing RPMI (Gibro-BRL, USA) supplemented with 10% FBS until the confluency reached 80%. […] The concentration of vehicle was up to 0.1% in every experiment.
(§2) MTT assay was performed with A549 cell line according to the method of Mossman, et al (J. Immunol. Methods, 65, 55-63, 1983).
(§3) 48 hours later, 5 mg/ml of MTT (3-4,5-dimethylthiazol-2,5-diphenyltetra zolium bromide) was added thereto, followed by culture at 37° C. for 3 hours. Then, the medium was discarded and the formed formazan crystal was dissolved in 500 μl of DMSO, which was aliquoted in 96-well plate. OD540 was measured.

[3] = test system: hsa-miR-28-5p (MIMAT0000085); experiment: Micro RNA microarray, change of hsa-miR-28-5p expression; format: cell-based, human; conditions: for Change (Fold) hsa-miR-28-5p: A549, treated at IC20 for 48 hours, microarray, versus control
[4] = test system: A549 cells; experiment: Micro RNA expression pattern by oligo microarray (Agilent Human miRNA array v16.0, 1347 human micro RNAs); format: cell-based; conditions: A549, treated at IC20 for 48 hours; for number of up-regulated micro RNAs out of 1347 / up-regulated micro RNA, share of 1347 micro RNAs: signal ratio to control higher than 1.5; for down-regulated micro RNA, share of 1347 micro RNAs / number of down-regulated micro RNAs out of 1347: signal ratio to control lower than 0.66
[5] = in vitro; format: cell-based, human; conditions: human
Method: as §1, §2, §3

IC20 [2] | IC20 at 48 h [5] | SMILES | Change (Fold) hsa-miR-590-5p [1] | expression level of hsa-miR-590-5p compared to the normal control group ([1]; result in words) | Change (Fold) hsa-miR-28-5p [3] | number of up-regulated micro RNAs out of 1347 [4] | up-regulated micro RNA, share of 1347 micro RNAs [4] | down-regulated micro RNA, share of 1347 micro RNAs [4] | number of down-regulated micro RNAs out of 1347 [4] | expression level of hsa-miR-28-5p compared to the normal control group ([3]; result in words) | expression level of hsa-miR-590-5p compared to the normal control group [1] | expression level of hsa-miR-28-5p compared to the normal control group [3]
4600 µM | – | CCCC=O [butylaldehyde] | 0.563 Fold | down-regulated | 0.962 Fold | 14 | 1.04% | 0.82% | 11 | – | – | –
– | – | CCCCCCC=O [heptanal] | 0.512 Fold | down-regulated | 0.922 Fold | 0 | 0.00% | 0.30% | 4 | down-regulated | – | –
– | – | CCCCCC=O [hexanal] | – | – | – | 5 | 0.37% | 0.07% | 1 | – | up-regulated | up-regulated
– | 440 µM | CCCCCCCCC=O [nonanal] | 0.966 Fold | down-regulated | 1.569 Fold | 6 | 0.45% | 0.00% | 0 | up-regulated | – | –
– | – | CCCCCCCC=O [octanal] | 0.508 Fold | down-regulated | 0.755 Fold | one | 0.07% | 1.04% | 14 | down-regulated | – | –
– | – | CCC=O [propionaldehyde] | – | – | – | 13 | 0.97% | 0.15% | 2 | up-regulated | – | –
– | – | CCCCC=O [valeraldehyde] | 1.253 Fold | up-regulated | 1.660 Fold | 8 | 0.59% | 0.15% | 5 | up-regulated | – | –
